The values that follow come from patent US9204653B2, “5-fluoro pyrimidine derivatives” (DOW AGROSCIENCES LLC, priority 2008, dated 2015).

This experiment relates to Mycosphaerella graminicola; Anamorph: Septoria tritici; Bayer Code SEPTTR. The experiment in a line: Leaf blotch of wheat, foliar fungicide treatment, one day protectant (1DP) or three day curative (3DC). The note with it: Zymoseptoria tritici, percent control rating; for pest or weed control at 100 ppm: read-out: SEPTTR 3DC 100 ppm. In kind it is in vivo, Septoria tritici on wheat plants (variety Yuma).

Where [1] appears, read: 24 h, one day protectant (1DP), 25 ppm (first 1DP column), read-out: SETTTR 1DP 25 ppm.
Setting [2] is: 24 h, one day protectant (1DP), 25 ppm as printed (second 1DP column), read-out: SETTTR 1DP 25 ppm.
Setting [3] is: 72 h, three day curative (3DC), 25 ppm, read-out: SEPTTR 3DC 25 ppm.

Read-outs that look alike come from different tables or passages of the source.

Take `CN(Cc1ccccc1)c1nc(O)ncc1F` [Compound 957, 4-(Benzylmethylamino)-5-fluoropyrimidin-2-ol]: the pest or weed control at 25 ppm is 0 to 25% under setting [1], 0 to 25% under setting [2] and 26 to 50% under setting [3]. In addition, the pest or weed control at 100 ppm (72 h, three day curative (3DC)) lay within 26 to 50%.
Regarding `Fc1cnc(OCc2ccccc2)nc1/N=N/c1cccc(C(F)(F)F)c1` [Compound 958], the pest or weed control at 25 ppm is 0 to 25% under setting [1], 0 to 25% under setting [2] and 26 to 50% under setting [3]. Besides, where the note is “72 h, three day curative (3DC)”, the pest or weed control at 100 ppm fell in the range of 26 to 50%.
Take `C=CCOc1ncc(F)c(NNC(=O)c2cccc(C)c2)n1` [Compound 959, N′-(2-(allyloxy)-5-fluoropyrimidin-4-yl)-3-methylbenzohydrazide]: the pest or weed control at 25 ppm was in the range of 0 to 25% under setting [1], 0 to 25% under setting [2] and 0 to 25% under setting [3]. For the same compound, where the note is “72 h, three day curative (3DC)”, the pest or weed control at 100 ppm lay within 0 to 25%.
For the compound `COc1ccc(/C=N/Nc2nc(O)ncc2F)cc1` [Compound 960, (E)-5-Fluoro-4-(2-(4-methoxybenzylidene)hydrazinyl)pyrimidin-2(1H)-one], the pest or weed control at 25 ppm under setting [1] was in the range of 0 to 25%, the pest or weed control at 25 ppm under setting [2] fell in the range of 0 to 25% and the pest or weed control at 25 ppm under setting [3] lay in the range of 0 to 25%. For the same compound, the pest or weed control at 100 ppm (72 h, three day curative (3DC)) lay within 0 to 25%.
As for `O=CNc1nc(OCc2ccccc2)ncc1F` [Compound 961, N-(2-(Benzyloxy)-5-fluoropyrimidin-4-yl)formamide], the pest or weed control at 25 ppm runs as follows: under setting [1], 76 to 100%; under setting [2], 76 to 100%; under setting [3], 76 to 100%. Besides, under “72 h, three day curative (3DC)”, the pest or weed control at 100 ppm was in the range of 76 to 100%.
In the case of `Nc1nc(OCOC(=O)C2CCCC2)ncc1F` [Compound 962, (4-amino-5-fluoropyrimidin-2-yloxy)methyl cyclopentanecarboxylate], the pest or weed control at 25 ppm is, setting by setting: under setting [1], 76 to 100%; under setting [2], 76 to 100%; under setting [3], 76 to 100%. Moreover, where the note is “72 h, three day curative (3DC)”, the pest or weed control at 100 ppm lay within 76 to 100%.
For `N#CNc1nc(OCc2ccccc2)ncc1F` [Compound 963, 2-Benzyloxy-5-fluoro-pyrimidin-4-yl-cyanamide], the pest or weed control at 25 ppm is, setting by setting: under setting [1], 0 to 25%; under setting [2], 0 to 25%; under setting [3], 26 to 50%. The pest or weed control at 100 ppm (72 h, three day curative (3DC)) lay in the range of 0 to 25%.
As for `N=C(NO)Nc1nc(OCc2ccccc2)ncc1F` [Compound 964, 1-[2-(Benzyloxy)-5-fluoropyrimidin-4-yl]-3-hydroxyguanidine], the pest or weed control at 25 ppm is, setting by setting: under setting [1], 0 to 25%; under setting [2], 0 to 25%; under setting [3], 0 to 25%. Besides, where the note is “72 h, three day curative (3DC)”, the pest or weed control at 100 ppm lay in the range of 26 to 50%.
For the compound `O=C(Nc1nc(O)ncc1F)c1ccc(Cl)nc1` [Compound 965], the pest or weed control at 25 ppm under setting [1] was in the range of 26 to 50%, the pest or weed control at 25 ppm under setting [2] was 76 to 100% and the pest or weed control at 25 ppm under setting [3] was 26 to 50%. For the same compound, under “72 h, three day curative (3DC)”, the pest or weed control at 100 ppm was 26 to 50%.
As for `O=C(Nc1ccccc1Cl)Nc1nc(O)ncc1F` [Compound 966], the pest or weed control at 25 ppm lay in the range of 26 to 50% under setting [1], 51 to 75% under setting [2] and 51 to 75% under setting [3]. For the same compound, the pest or weed control at 100 ppm (72 h, three day curative (3DC)) was in the range of 51 to 75%.
As to `O=C(Nc1ccccc1)Nc1nc(O)ncc1F` [Compound 967], the pest or weed control at 25 ppm runs as follows: under setting [1], 26 to 50%; under setting [2], 26 to 50%; under setting [3], 51 to 75%. For the setting “72 h, three day curative (3DC)”, the pest or weed control at 100 ppm was in the range of 51 to 75%.
As for `Cc1ccc(NC(=O)Nc2nc(O)ncc2F)cc1` [Compound 968], the pest or weed control at 25 ppm fell in the range of 51 to 75% under setting [1], 51 to 75% under setting [2] and 51 to 75% under setting [3]. Moreover, the pest or weed control at 100 ppm (72 h, three day curative (3DC)) was 51 to 75%.
Regarding `O=C(NCc1ccccc1)Nc1nc(O)ncc1F` [Compound 969], the pest or weed control at 25 ppm reads like this: under setting [1], 26 to 50%; under setting [2], 26 to 50%; under setting [3], 26 to 50%. Besides, the pest or weed control at 100 ppm (72 h, three day curative (3DC)) lay within 51 to 75%.
Take `O=C(NCc1ccccc1F)Nc1nc(O)ncc1F` [Compound 970]: the pest or weed control at 25 ppm is, setting by setting: under setting [1], 26 to 50%; under setting [2], 51 to 75%; under setting [3], 26 to 50%. The pest or weed control at 100 ppm (72 h, three day curative (3DC)) fell in the range of 26 to 50%.
Turning to `CC(C)NC(=O)Nc1nc(O)ncc1F` [Compound 971], the pest or weed control at 25 ppm is 26 to 50% under setting [1], 26 to 50% under setting [2] and 51 to 75% under setting [3]. Moreover, the pest or weed control at 100 ppm (72 h, three day curative (3DC)) lay in the range of 76 to 100%.
As for `CCCCCNC(=O)Nc1nc(O)ncc1F` [Compound 972], the pest or weed control at 25 ppm runs as follows: under setting [1], 51 to 75%; under setting [2], 76 to 100%; under setting [3], 51 to 75%. In addition, the pest or weed control at 100 ppm (72 h, three day curative (3DC)) was 51 to 75%.
Regarding `O=C(Nc1nc(O)ncc1F)NC1CCCC1` [Compound 973], the pest or weed control at 25 ppm runs as follows: under setting [1], 26 to 50%; under setting [2], 26 to 50%; under setting [3], 76 to 100%. Also, the pest or weed control at 100 ppm (72 h, three day curative (3DC)) lay in the range of 51 to 75%.
For the compound `O=C(/C=C/c1ccccc1)Nc1nc(O)ncc1F` [Compound 974], the pest or weed control at 25 ppm lay within 51 to 75% under setting [1], 76 to 100% under setting [2] and 51 to 75% under setting [3]. Moreover, the pest or weed control at 100 ppm (72 h, three day curative (3DC)) is 26 to 50%.
On to `CC(C)(C)NC(=O)Nc1nc(O)ncc1F` [Compound 975], for which the pest or weed control at 25 ppm under setting [1] lay in the range of 0 to 25%, the pest or weed control at 25 ppm under setting [2] lay within 0 to 25% and the pest or weed control at 25 ppm under setting [3] lay within 0 to 25%. Besides, for the setting “72 h, three day curative (3DC)”, the pest or weed control at 100 ppm was in the range of 0 to 25%.
Turning to `CCOC(=O)CNC(=O)Nc1nc(O)ncc1F` [Compound 976], the pest or weed control at 25 ppm reads like this: under setting [1], 0 to 25%; under setting [2], 0 to 25%; under setting [3], 0 to 25%. Moreover, the pest or weed control at 100 ppm (72 h, three day curative (3DC)) was 0 to 25%.
In the case of `Cc1coc(C)c1C(=O)Nc1nc(O)ncc1F` [Compound 977], the pest or weed control at 25 ppm was in the range of 0 to 25% under setting [1], 51 to 75% under setting [2] and 0 to 25% under setting [3]. In addition, the pest or weed control at 100 ppm (72 h, three day curative (3DC)) was 76 to 100%.
Consider `Cn1ncc(C(=O)Nc2nc(O)ncc2F)c1Cl` [Compound 978], for which the pest or weed control at 25 ppm runs as follows: under setting [1], 0 to 25%; under setting [2], 0 to 25%; under setting [3], 0 to 25%. Besides, the pest or weed control at 100 ppm (72 h, three day curative (3DC)) was 0 to 25%.
For the compound `O=C(Nc1nc(O)ncc1F)c1ccsc1` [Compound 979], the pest or weed control at 25 ppm is, setting by setting: under setting [1], 0 to 25%; under setting [2], 26 to 50%; under setting [3], 0 to 25%. Also, the pest or weed control at 100 ppm (72 h, three day curative (3DC)) fell in the range of 51 to 75%.
As for `CCCNC(=O)Nc1nc(O)ncc1F` [Compound 980], the pest or weed control at 25 ppm under setting [1] was in the range of 0 to 25%, the pest or weed control at 25 ppm under setting [2] fell in the range of 0 to 25% and the pest or weed control at 25 ppm under setting [3] lay in the range of 0 to 25%. Besides, the pest or weed control at 100 ppm (72 h, three day curative (3DC)) was 0 to 25%.
Turning to `O=C(NCc1ccco1)Nc1nc(O)ncc1F` [Compound 981], the pest or weed control at 25 ppm lay within 0 to 25% under setting [1], 0 to 25% under setting [2] and 0 to 25% under setting [3]. For the same compound, for the setting “72 h, three day curative (3DC)”, the pest or weed control at 100 ppm was in the range of 0 to 25%.
Take `CCCCCOC(=O)Nc1nc(OCc2ccccc2)ncc1F` [Compound 982]: the pest or weed control at 25 ppm under setting [1] was in the range of 76 to 100%, the pest or weed control at 25 ppm under setting [2] is 76 to 100% and the pest or weed control at 25 ppm under setting [3] fell in the range of 76 to 100%. Under “72 h, three day curative (3DC)”, the pest or weed control at 100 ppm fell in the range of 76 to 100%.
With `C=CCOC(=O)Nc1nc(OCc2ccccc2)ncc1F` [Compound 983], the pest or weed control at 25 ppm under setting [1] lay in the range of 76 to 100%, the pest or weed control at 25 ppm under setting [2] was 76 to 100% and the pest or weed control at 25 ppm under setting [3] is 76 to 100%. Also, the pest or weed control at 100 ppm (72 h, three day curative (3DC)) is 76 to 100%.
Regarding `CCCCCOC(=O)Nc1nc(OCc2ccc(F)cc2)ncc1F` [Compound 984], the pest or weed control at 25 ppm by setting is: under setting [1], 76 to 100%; under setting [2], 76 to 100%; under setting [3], 76 to 100%. Also, for the setting “72 h, three day curative (3DC)”, the pest or weed control at 100 ppm lay in the range of 76 to 100%.
Consider `C=CCOC(=O)Nc1nc(OCc2ccc(F)cc2)ncc1F` [Compound 985], for which the pest or weed control at 25 ppm under setting [1] is 76 to 100%, the pest or weed control at 25 ppm under setting [2] lay in the range of 76 to 100% and the pest or weed control at 25 ppm under setting [3] is 76 to 100%. Besides, the pest or weed control at 100 ppm (72 h, three day curative (3DC)) was in the range of 76 to 100%.
Regarding `CCCCCOC(=O)Nc1nc(OCc2ccc(C)cc2)ncc1F` [Compound 986], the pest or weed control at 25 ppm by setting is: under setting [1], 76 to 100%; under setting [2], 76 to 100%; under setting [3], 76 to 100%. For the setting “72 h, three day curative (3DC)”, the pest or weed control at 100 ppm was in the range of 76 to 100%.
As to `C=CCOC(=O)Nc1nc(OCc2ccc(C)cc2)ncc1F` [Compound 987], the pest or weed control at 25 ppm fell in the range of 76 to 100% under setting [1], 76 to 100% under setting [2] and 76 to 100% under setting [3]. The pest or weed control at 100 ppm (72 h, three day curative (3DC)) fell in the range of 76 to 100%.
`CCCCCOC(=O)Nc1nc(OCc2cccc(OC)c2)ncc1F` [Compound 988]: the pest or weed control at 25 ppm is 76 to 100% under setting [1], 76 to 100% under setting [2] and 76 to 100% under setting [3]. In addition, the pest or weed control at 100 ppm (72 h, three day curative (3DC)) was 76 to 100%.
Consider `C=CCOC(=O)Nc1nc(OCc2cccc(OC)c2)ncc1F` [Compound 989], for which the pest or weed control at 25 ppm runs as follows: under setting [1], 76 to 100%; under setting [2], 76 to 100%; under setting [3], 51 to 75%. In addition, the pest or weed control at 100 ppm (72 h, three day curative (3DC)) fell in the range of 76 to 100%.
Regarding `C/C(=N\Oc1nc(OCc2ccccc2)ncc1F)c1cnc(OCC(F)(F)F)nc1` [Compound 990], the pest or weed control at 25 ppm lay within 0 to 25% under setting [1], 0 to 25% under setting [2] and 0 to 25% under setting [3]. Further, the pest or weed control at 100 ppm (72 h, three day curative (3DC)) was 0 to 25%.
With `Fc1cnc(OCc2ccccc2)nc1/N=N/c1ccccc1` [Compound 991], the pest or weed control at 25 ppm reads like this: under setting [1], 0 to 25%; under setting [2], 0 to 25%; under setting [3], 0 to 25%. Further, the pest or weed control at 100 ppm (72 h, three day curative (3DC)) was 0 to 25%.
